# According to patent publication US11382328B2, “Rapid drug discovery methods for pathogen inactivation” (priority 2019, dated 2022):
# System: E. coli strain W3110
# Assay: Synergy assays: Biolog chemical sensitivity panels with Group IB metal, coefficient of drug interaction (CDI) from relative growth
# Assay type: cell-based
# Details: for CDI (coefficient of drug interaction), copper mixed with biocide: Copper (mM) section; for CDI (coefficient of drug interaction): Gold section of Table 5
structure (smiles),measurement,setting,value
CN[C@@H]1[C@@H](O)[C@@H](O[C@@H]2[C@@H](O)[C@H](O[C@H]3O[C@H]([C@@H](C)O)[C@@H](O)[C@H](O)[C@H]3N)[C@@H](N)C[C@H]2N)OC[C@]1(C)O [geneticin (G418)],"CDI (coefficient of drug interaction), copper mixed with biocide","1st of 3 copper concentrations (value not shown), 1st of four biocide concentrations",0.97
same,"CDI (coefficient of drug interaction), copper mixed with biocide","1st of 3 copper concentrations (value not shown), 2nd of four biocide concentrations",0.87
same,"CDI (coefficient of drug interaction), copper mixed with biocide","1st of 3 copper concentrations (value not shown), 3rd of four biocide concentrations",0.86
same,"CDI (coefficient of drug interaction), copper mixed with biocide","1st of 3 copper concentrations (value not shown), 4th of four biocide concentrations",0.88
same,"CDI (coefficient of drug interaction), copper mixed with biocide","2nd of 3 copper concentrations (value not shown), 1st of four biocide concentrations",0.73
same,"CDI (coefficient of drug interaction), copper mixed with biocide","2nd of 3 copper concentrations (value not shown), 2nd of four biocide concentrations",0.71
same,"CDI (coefficient of drug interaction), copper mixed with biocide","2nd of 3 copper concentrations (value not shown), 3rd of four biocide concentrations",0.71
same,"CDI (coefficient of drug interaction), copper mixed with biocide","2nd of 3 copper concentrations (value not shown), 4th of four biocide concentrations",Tox
same,"CDI (coefficient of drug interaction), copper mixed with biocide","3rd of 3 copper concentrations (value not shown), 1st of four biocide concentrations",0.54
same,"CDI (coefficient of drug interaction), copper mixed with biocide","3rd of 3 copper concentrations (value not shown), 2nd of four biocide concentrations",0.50
same,"CDI (coefficient of drug interaction), copper mixed with biocide","3rd of 3 copper concentrations (value not shown), 3rd of four biocide concentrations",0.48
same,"CDI (coefficient of drug interaction), copper mixed with biocide","3rd of 3 copper concentrations (value not shown), 4th of four biocide concentrations",0.44
same,CDI (coefficient of drug interaction),"first of three gold concentrations (μM, value not given), biocide concentration 1 of 4",1.08
same,CDI (coefficient of drug interaction),"first of three gold concentrations (μM, value not given), biocide concentration 2 of 4",1.00
same,CDI (coefficient of drug interaction),"first of three gold concentrations (μM, value not given), biocide concentration 3 of 4",1.01
same,CDI (coefficient of drug interaction),"first of three gold concentrations (μM, value not given), biocide concentration 4 of 4",0.95
same,CDI (coefficient of drug interaction),"second of three gold concentrations (μM, value not given), biocide concentration 1 of 4",1.05
same,CDI (coefficient of drug interaction),"second of three gold concentrations (μM, value not given), biocide concentration 2 of 4",1.03
same,CDI (coefficient of drug interaction),"second of three gold concentrations (μM, value not given), biocide concentration 3 of 4",1.00
same,CDI (coefficient of drug interaction),"second of three gold concentrations (μM, value not given), biocide concentration 4 of 4",1.02
same,CDI (coefficient of drug interaction),"third of three gold concentrations (μM, value not given), biocide concentration 1 of 4",1.05
same,CDI (coefficient of drug interaction),"third of three gold concentrations (μM, value not given), biocide concentration 2 of 4",1.04
same,CDI (coefficient of drug interaction),"third of three gold concentrations (μM, value not given), biocide concentration 3 of 4",1.05
same,CDI (coefficient of drug interaction),"third of three gold concentrations (μM, value not given), biocide concentration 4 of 4",1.11
same,CDI,"Silver 0.5 μM, biocide concentration 1 of 4",1.04
same,CDI,"Silver 0.5 μM, biocide concentration 2 of 4",0.96
same,CDI,"Silver 0.5 μM, biocide concentration 3 of 4",0.76
same,CDI,"Silver 0.5 μM, biocide concentration 4 of 4",Tox
same,CDI,"Silver 1.0 μM, biocide concentration 1 of 4",0.94
same,CDI,"Silver 1.0 μM, biocide concentration 2 of 4",0.82
same,CDI,"Silver 1.0 μM, biocide concentration 3 of 4",0.31
same,CDI,"Silver 1.0 μM, biocide concentration 4 of 4",Tox
same,CDI,"Silver 5.0 μM, biocide concentration 1 of 4",0.48
same,CDI,"Silver 5.0 μM, biocide concentration 2 of 4",0.49
same,CDI,"Silver 5.0 μM, biocide concentration 3 of 4",0.23
same,CDI,"Silver 5.0 μM, biocide concentration 4 of 4",Tox
